Laboratory results reported in patent US9254274B2, “Method of treating Tourette'S disorder with GABA-aminotransferase inactivators” (CATALYST PHARMACEUTICAL PARTNERS, priority 2012, dated 2016).
Entries after “also recorded” stand apart in the source; their conditions may differ.

Assays:
GABAA receptor = experiment: [^3H]muscimol competition binding, rat brain synaptic membranes
Experimental: On the day of the assay, the membrane preparation was quickly thawed, suspended in 40 volumes of ice-cold 50 mM Tris-HCl buffer (pH 7.4) using an UltraTurrax homogenizer and centrifuged at 48,000 g for 10 min at 4° C. This washing step was repeated four times. The final pellet was resuspended in incubation buffer and the binding assay carried out as detailed below.

human ρ1 GABAC receptors = target: T1, human ρ1 GABAC receptors (Homo sapiens, UniProt P24046); experiment: Activity at recombinant GABAC receptors expressed in oocytes; type: cell-based; conditions: 100 μM, hydrochloride salt
T1 construct: expressed in transfected cells; host or cells: Xenopus laevis oocytes
T1 sequence (P24046 22-479): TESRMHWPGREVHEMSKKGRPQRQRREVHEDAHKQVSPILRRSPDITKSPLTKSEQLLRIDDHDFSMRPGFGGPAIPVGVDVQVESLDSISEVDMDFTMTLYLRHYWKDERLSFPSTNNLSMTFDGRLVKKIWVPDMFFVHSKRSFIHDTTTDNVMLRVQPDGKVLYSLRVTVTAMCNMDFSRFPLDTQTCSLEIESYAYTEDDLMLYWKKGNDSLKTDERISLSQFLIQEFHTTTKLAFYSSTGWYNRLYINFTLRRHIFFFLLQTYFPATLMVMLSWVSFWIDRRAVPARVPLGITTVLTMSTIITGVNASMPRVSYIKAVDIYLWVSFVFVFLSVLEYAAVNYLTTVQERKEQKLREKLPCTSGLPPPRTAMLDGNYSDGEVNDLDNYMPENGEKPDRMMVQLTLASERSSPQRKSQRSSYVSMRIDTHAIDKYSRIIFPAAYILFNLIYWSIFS

hBGT-1 = target: T2, hBGT-1 (Homo sapiens, UniProt P48065); experiment: [^3H]GABA uptake assay at human GABA transporters, tsA201 cells; type: cell-based; conditions: mammalian cells recombinantly expressing hBGT-1
T2 construct: expressed in transfected cells; host or cells: tsA201 cells (transient, PolyFect)
T2 sequence (P48065 1-614): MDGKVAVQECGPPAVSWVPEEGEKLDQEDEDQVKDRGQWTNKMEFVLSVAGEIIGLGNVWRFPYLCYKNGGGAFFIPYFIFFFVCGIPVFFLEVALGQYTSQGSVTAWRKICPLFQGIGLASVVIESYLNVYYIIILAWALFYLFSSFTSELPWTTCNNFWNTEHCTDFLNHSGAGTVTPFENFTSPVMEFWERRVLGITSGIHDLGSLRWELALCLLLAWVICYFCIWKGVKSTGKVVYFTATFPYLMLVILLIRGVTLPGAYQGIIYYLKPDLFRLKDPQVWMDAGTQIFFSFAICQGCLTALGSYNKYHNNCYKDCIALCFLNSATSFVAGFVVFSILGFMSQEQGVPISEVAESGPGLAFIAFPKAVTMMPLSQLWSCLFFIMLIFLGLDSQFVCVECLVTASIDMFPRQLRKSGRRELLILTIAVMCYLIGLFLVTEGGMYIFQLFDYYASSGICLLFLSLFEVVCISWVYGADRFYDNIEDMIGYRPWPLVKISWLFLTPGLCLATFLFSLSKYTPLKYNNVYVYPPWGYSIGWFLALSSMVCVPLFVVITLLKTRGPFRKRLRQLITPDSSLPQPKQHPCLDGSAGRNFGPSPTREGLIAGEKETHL
Experimental: (§1) tsA201 cells were cultured in GlutaMAX-I DMEM supplemented with 10% fetal bovine serum, penicillin (100 U/ml), and streptomycin (100 μg/ml) at 37° C. in a humidified atmosphere of 95% air and 5% CO2. […] Quantification was performed by using Microscint™ 20 scintillation fluid (Perkin Elmer) and a Packard TopCount microplate scintillation counter.

hGAT-1 = target: T3, hGAT-1 (Homo sapiens, UniProt P30531); experiment: as above; type: cell-based; conditions: mammalian cells recombinantly expressing hGAT-1
T3 construct: expressed in transfected cells; host or cells: tsA201 cells (transient, PolyFect)
T3 sequence (P30531 whole entry): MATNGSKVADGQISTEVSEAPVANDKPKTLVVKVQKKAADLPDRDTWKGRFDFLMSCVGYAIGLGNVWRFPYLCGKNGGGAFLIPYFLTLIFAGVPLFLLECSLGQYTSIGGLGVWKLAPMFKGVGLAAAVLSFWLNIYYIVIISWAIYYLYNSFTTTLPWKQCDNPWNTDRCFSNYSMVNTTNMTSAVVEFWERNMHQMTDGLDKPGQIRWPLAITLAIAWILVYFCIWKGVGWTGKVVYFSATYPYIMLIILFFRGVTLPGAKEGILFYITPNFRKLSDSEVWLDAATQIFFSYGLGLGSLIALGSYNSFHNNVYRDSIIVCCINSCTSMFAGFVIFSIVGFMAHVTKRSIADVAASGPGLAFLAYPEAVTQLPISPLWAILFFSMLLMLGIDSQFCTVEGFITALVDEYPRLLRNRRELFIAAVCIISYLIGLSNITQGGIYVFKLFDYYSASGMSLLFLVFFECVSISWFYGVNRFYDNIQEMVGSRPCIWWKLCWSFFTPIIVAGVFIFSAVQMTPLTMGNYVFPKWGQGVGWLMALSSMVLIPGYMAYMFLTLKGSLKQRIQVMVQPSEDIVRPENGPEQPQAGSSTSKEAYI
Experimental: as §1

hGAT-2 = target: T4, hGAT-2 (Homo sapiens, UniProt Q9NSD5); experiment: as above; type: cell-based; conditions: mammalian cells recombinantly expressing hGAT-2
T4 construct: expressed in transfected cells; host or cells: tsA201 cells (transient, PolyFect)
T4 sequence (Q9NSD5 1-602): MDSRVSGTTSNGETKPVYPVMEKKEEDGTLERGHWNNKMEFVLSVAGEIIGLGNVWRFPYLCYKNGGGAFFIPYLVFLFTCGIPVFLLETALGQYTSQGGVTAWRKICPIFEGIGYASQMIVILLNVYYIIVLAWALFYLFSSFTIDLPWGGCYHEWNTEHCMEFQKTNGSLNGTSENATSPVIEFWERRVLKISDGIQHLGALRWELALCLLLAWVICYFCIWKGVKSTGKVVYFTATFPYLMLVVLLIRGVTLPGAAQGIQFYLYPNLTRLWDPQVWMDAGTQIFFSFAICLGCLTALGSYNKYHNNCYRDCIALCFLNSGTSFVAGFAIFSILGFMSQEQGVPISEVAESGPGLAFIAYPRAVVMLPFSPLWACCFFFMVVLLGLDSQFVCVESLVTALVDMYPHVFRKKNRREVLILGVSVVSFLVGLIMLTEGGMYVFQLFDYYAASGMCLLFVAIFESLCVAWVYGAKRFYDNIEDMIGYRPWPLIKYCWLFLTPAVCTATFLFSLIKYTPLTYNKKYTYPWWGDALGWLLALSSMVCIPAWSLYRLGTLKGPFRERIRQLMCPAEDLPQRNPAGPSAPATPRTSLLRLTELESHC
Experimental: as §1

hGAT-3 = target: T5, hGAT-3 (Homo sapiens, UniProt P48066); experiment: as above; type: cell-based; conditions: mammalian cells recombinantly expressing hGAT-3
T5 construct: expressed in transfected cells; host or cells: tsA201 cells (transient, PolyFect)
T5 sequence (P48066 1-632): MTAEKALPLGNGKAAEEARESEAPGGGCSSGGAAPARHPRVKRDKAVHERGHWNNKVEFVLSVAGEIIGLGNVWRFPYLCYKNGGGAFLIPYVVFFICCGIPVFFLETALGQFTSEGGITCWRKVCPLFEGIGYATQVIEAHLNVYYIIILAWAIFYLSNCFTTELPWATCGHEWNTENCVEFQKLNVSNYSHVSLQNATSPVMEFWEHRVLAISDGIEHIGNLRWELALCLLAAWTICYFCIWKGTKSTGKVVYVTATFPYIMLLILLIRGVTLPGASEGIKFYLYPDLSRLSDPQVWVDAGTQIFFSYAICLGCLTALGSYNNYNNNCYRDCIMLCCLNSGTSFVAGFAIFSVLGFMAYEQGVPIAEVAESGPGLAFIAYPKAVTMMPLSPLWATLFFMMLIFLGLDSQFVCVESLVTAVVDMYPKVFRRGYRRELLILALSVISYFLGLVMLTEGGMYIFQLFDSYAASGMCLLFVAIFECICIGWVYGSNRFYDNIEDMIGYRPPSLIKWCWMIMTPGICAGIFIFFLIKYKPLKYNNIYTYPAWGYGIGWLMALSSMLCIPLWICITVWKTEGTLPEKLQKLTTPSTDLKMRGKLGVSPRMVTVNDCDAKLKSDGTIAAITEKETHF
Experimental: as §1

cortical neurons = experiment: [^3H]GABA uptake in cultured cortical neurons; type: cell-based, mouse
Experimental: (§2) Cortical neurons were cultured essentially as previously described by removing the neopallium of 15-day old NMRI embryos by dissection followed by mild trypsination (Hertz E, Yu A C H, Hertz L, Juurlink B H J and Schousboe A. Preparation of Primary Cultures of Mouse Cortical Neurons, in A Dissection and Tissue Culture Manual of the Nervous System (Shahar A, de Vellis J, Vernadakis A and Haber B eds) pp 183-186, Alan R. Liss, Inc., New York, […]). The neurons were cultured in 10% fetal calf serum and, after 48 h, cytosine arabinoside was added to a final concentration of 20 μM to prevent glial proliferation. […] The stable cell lines are under the selection pressure of blasticidin-S at 5 μg/mL. […] Radioactivity was measured using Microscint™ 20 scintillation fluid (PerkinElmer) and a Packard TopCount microplate scintillation counter.

cortical astrocytes = experiment: [^3H]GABA uptake in cultured cortical astrocytes; type: cell-based, mouse
Experimental: Cortical astrocytes were cultured essentially as previously described (Hertz L, Juurlink B H J, Hertz E, Fosmark H and Schousboe A, Preparation of Primary Cultures of Mouse (Rat) Astrocytes, in A Dissection and Tissue Culture Manual of the Nervous System (Shahar A, de Vellis J, Vernadakis A and Haber B eds) pp 105-108, Alan R. Liss, Inc., New York, 1989). The neopallium was removed from new born NMRI mice (Taconic, Denmark) and passed through an 80 μm nylon sieve and cultured in modified Dulbecco's modified Eagle's medium with fetal calf serum. The calf serum was lowered from 20% to 10% over three weeks, and finally the astrocytes were allowed to differentiate using 0.25 mM dibutyryl cyclic AMP during the last week of growth.
Cortical neurons were cultured essentially as previously described by removing the neopallium of 15-day old NMRI embryos by dissection followed by mild trypsination (Hertz E, Yu A C H, Hertz L, Juurlink B H J and Schousboe A. Preparation of Primary Cultures of Mouse Cortical Neurons, in A Dissection and Tissue Culture Manual of the Nervous System (Shahar A, de Vellis J, Vernadakis A and Haber B eds) pp 183-186, Alan R. Liss, Inc., New York, 198). […] Radioactivity was measured using Microscint™ 20 scintillation fluid (PerkinElmer) and a Packard TopCount microplate scintillation counter.

reuptake of GABA = experiment: GABA reuptake, general statement; type: cell-based
Experimental: as §1, §2

GABAB receptor [1] = target: T6, GABAB receptor (Rattus norvegicus, UniProt Q9Z0U4); conditions: 100 μM, rat brain cortical homogenate; hydrochloride salt
T6 sequence (Q9Z0U4 17-960 limits assumed): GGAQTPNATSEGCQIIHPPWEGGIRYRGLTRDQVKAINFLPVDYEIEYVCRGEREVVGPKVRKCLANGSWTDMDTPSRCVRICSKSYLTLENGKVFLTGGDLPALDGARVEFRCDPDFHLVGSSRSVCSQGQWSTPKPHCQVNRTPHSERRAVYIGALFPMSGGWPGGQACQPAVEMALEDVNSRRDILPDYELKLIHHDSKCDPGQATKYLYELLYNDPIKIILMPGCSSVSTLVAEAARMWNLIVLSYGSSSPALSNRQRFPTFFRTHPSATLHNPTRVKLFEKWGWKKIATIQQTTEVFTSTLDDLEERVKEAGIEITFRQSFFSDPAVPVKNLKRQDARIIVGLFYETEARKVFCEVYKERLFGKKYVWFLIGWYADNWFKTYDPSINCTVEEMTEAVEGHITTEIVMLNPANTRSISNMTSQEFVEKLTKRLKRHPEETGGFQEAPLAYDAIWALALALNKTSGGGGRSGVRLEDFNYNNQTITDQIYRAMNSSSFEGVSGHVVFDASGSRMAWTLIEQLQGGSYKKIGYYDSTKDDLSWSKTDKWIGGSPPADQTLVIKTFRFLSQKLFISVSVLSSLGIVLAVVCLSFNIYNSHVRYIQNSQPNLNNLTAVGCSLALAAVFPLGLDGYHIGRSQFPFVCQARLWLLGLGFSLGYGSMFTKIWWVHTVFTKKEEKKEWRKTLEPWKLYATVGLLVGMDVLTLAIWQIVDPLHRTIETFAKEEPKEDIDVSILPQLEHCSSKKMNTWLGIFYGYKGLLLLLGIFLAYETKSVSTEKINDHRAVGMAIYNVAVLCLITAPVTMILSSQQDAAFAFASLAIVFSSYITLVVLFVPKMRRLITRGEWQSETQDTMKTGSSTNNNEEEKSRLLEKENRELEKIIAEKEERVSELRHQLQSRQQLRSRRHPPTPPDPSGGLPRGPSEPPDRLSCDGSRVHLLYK
T6 sequence (O88871 41-940 partner): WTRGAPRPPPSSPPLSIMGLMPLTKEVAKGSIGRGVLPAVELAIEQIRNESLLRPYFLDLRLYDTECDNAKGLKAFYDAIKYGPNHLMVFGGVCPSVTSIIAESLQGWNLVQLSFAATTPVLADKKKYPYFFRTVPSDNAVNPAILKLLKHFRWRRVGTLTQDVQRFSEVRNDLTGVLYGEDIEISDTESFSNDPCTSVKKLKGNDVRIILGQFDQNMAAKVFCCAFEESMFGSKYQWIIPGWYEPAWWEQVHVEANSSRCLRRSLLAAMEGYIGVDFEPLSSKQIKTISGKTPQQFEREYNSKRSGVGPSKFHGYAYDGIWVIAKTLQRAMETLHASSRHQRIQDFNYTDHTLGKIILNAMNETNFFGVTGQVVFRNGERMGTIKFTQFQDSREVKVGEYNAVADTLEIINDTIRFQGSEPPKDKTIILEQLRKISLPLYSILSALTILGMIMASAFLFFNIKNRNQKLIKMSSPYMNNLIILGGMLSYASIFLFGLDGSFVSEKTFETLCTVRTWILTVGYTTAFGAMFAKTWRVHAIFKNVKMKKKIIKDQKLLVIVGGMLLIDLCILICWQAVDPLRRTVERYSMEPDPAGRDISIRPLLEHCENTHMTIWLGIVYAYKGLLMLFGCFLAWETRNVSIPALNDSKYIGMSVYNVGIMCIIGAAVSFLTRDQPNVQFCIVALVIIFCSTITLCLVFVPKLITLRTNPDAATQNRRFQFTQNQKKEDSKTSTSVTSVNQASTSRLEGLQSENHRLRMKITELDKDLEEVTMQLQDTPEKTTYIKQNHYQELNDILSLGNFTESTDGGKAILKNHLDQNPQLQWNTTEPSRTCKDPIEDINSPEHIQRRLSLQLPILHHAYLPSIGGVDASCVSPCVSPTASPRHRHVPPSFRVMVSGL

GABAB receptor [2] = target: T6, GABAB receptor; experiment: biochemical

Cl.N[C@H]1C[C@@H](C(=O)O)CC1=C(F)F [(1S,3S)-3-amino-4-difluoromethylenyl-1-cyclopentanoic acid hydrochloride salt]
inhibition of radioligand binding at GABAA receptors (GABAA receptor; 100 μM, rat brain cortical homogenate, hydrochloride salt): no inhibition of binding was observed; also recorded: nor does it bind
agonist or antagonist effect at GABAC receptors (human ρ1 GABAC receptors): no effect as an agonist or antagonist
inhibition of [^3H]GABA uptake (hBGT-1): does not inhibit
inhibition of [^3H]GABA uptake (hGAT-1): does not inhibit
inhibition of [^3H]GABA uptake (hGAT-2): does not inhibit
inhibition of [^3H]GABA uptake (hGAT-3): does not inhibit
inhibition of [^3H]GABA uptake (cortical neurons): does not inhibit
inhibition of [^3H]GABA uptake (cortical astrocytes): does not inhibit
inhibition of the reuptake of GABA (reuptake of GABA): does not inhibit the reuptake of GABA
inhibition of radioligand binding at GABAB receptors (GABAB receptor [1]): no inhibition of binding was observed

N[C@H]1C[C@@H](C(=O)O)CC1=C(F)F [(1S,3S)-3-amino-4-difluoromethylenyl-1-cyclopentanoic acid]
IC50 (GABAA receptor; rat brain synaptic membranes): > 100 µM
IC50 (GABAB receptor [2]): > 100 µM
